Measured values published in US10851092B2, “Pyridine compound” (Daiichi Sankyo Company, Limited, priority 2016, dated 2020).
Read-outs that look alike come from different tables or passages of the source.

Columns and labels:
[1] = test system: non-small cell lung cancer cell line LC-2/ad having a CCDC6-RET fusion gene; assay: Cell growth inhibitory activity, non-small cell lung cancer cell line LC-2/ad; assay type: cell-based; conditions: Homo sapiens, 216 h; LC-2/ad cells, 9 days, CellTiter-Glo
Protocol: The cell growth inhibitory activity of the test compound on the non-small cell lung cancer cell line LC-2/ad having a CCDC6-RET fusion gene (RIKEN, J Thorac Oncol. 2012 December, 7(12), 1872-6) was measured.
LC-2/ad cells were seeded on a 96-well plate at a cell density of 5,000 cells per well, and then cultured at 37° C. in the presence of 5% CO2 overnight in a medium prepared by mixing RPMI-1640 containing 15% FBS and 25 mM HEPES with Ham's F12 Mixture at a mixing ratio of 1:1. Thereafter, the test compound was diluted, and then added to the 96-well plate. As a negative control, dimethyl sulfoxide (hereinafter referred to as DMSO) was added. The obtained mixture was cultured at 37° C. in the presence of 5% CO2 for 9 days, and thereafter, a cell count measuring reagent CellTiter-Glo® Luminescent Cell Viability Assay (Promega, # G7571) was added to the culture, followed by stirring the mixture. Thereafter, using a luminescence measurement device Envision, the luminescence intensity was measured. The measurement value of a well to which only the medium had been added was define as a survival rate of 0%, and the measurement value of a well to which DMSO had been added was defined as a survival rate of 100%. The survival rate of the LC-2/ad cells in the presence of each concentration of the test compound was calculated.

KDR kinase = KDR kinase (Homo sapiens (Human), UniProt P35968); assay: Evaluation of KDR kinase inhibiting activity (cell system), HUVEC, AlphaLISA; assay type: cell-based
KDR kinase, sequence (P35968 20-1356): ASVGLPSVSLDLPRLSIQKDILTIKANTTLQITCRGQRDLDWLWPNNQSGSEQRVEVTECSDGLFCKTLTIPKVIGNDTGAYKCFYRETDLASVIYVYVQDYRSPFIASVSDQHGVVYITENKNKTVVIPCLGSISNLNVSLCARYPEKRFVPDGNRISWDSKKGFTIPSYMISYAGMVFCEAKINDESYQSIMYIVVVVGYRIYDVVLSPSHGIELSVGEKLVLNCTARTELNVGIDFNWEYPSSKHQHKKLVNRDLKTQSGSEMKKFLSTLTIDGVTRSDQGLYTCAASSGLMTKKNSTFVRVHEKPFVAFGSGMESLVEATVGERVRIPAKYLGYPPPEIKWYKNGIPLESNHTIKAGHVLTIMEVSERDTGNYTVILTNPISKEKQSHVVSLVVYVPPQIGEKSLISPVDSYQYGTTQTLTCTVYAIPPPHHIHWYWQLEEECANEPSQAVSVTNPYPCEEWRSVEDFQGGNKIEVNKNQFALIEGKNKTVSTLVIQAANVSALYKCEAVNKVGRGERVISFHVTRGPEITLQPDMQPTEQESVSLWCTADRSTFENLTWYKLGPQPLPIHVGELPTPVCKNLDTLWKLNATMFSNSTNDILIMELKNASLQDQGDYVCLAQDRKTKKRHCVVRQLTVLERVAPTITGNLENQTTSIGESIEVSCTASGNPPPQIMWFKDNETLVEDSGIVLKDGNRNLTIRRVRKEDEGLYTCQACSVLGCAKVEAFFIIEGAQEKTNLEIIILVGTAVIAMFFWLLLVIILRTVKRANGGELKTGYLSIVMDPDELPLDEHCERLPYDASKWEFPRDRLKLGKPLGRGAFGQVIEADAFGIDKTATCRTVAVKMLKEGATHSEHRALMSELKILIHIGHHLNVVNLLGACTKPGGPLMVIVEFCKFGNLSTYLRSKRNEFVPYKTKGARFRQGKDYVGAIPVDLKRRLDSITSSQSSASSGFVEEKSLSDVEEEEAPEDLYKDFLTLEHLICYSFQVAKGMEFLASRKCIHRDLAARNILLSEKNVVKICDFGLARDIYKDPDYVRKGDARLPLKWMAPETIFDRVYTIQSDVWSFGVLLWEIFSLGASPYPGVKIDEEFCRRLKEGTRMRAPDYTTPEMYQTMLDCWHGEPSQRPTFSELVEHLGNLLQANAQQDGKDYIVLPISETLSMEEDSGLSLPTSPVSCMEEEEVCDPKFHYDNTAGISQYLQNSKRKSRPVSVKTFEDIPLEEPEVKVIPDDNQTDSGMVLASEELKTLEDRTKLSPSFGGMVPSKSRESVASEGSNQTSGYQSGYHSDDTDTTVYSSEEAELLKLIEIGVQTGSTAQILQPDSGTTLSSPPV
Protocol: HUVEC cells were seeded on a plate at a cell density of 1500 cells per well, and then cultured overnight. The test compound (10 uM, 2.5 uM, 625 nM, 156 nM, […], 10 nM, 2.5 nM, or 0.6 nM) was added to each well, followed by culturing the obtained mixture for 2 hours. Thereafter, VEGF165 (Peprotech, #100-20) was added to the culture at a final concentration of 50 ng/ml, and the obtained mixture was then reacted at 37° C. for 5 minutes. Thereafter, the resulting cells were lysed with 50 ul of Lysis buffer included in AlphaLISA SureFire Ultra (Perkin Elmer, # ALSU-PVGFR-A500), and Acceptor beads and Donor beads were then added to 10 ul of the cell lysate according to the instruction manual included with the aforementioned kit. The mixture thus obtained was reacted at room temperature overnight, and thereafter, a KDR kinase inhibiting activity rate was measured using Envision (Perkin Elmer).
The value for a well to which only the Lysis buffer had been added was subtracted as a background from all of the values. Thereafter, the value for a well to which […] had been added and the test compound had not been added was defined as a KDR kinase activity of 100%, and the obtained value was corrected.

[2] = test system: non-small cell lung cancer cell line LC-2/ad xenograft; assay: Antitumor activity in xenograft model established with LC-2/ad; assay type: in vivo, NOG mice; conditions: oral
Description: (§1) Cells of a non-small cell lung cancer cell line LC-2/ad (RIKEN, J Thorac Oncol. 2012 December, 7(12), 1872-6) suspended in DPBS (Gibco, #14190) were mixed with an equal amount of Corning Matrigel Basement Membrane Matrix (Corning, #354234), and the obtained mixture was then subcutaneously transplanted into NOG mice to form a tumor. (The NOG mice were acclimatized after they had been received from In Vivo Science Inc., and thereafter, the cells were transplanted into the mice when the mice were 9 week olds. As feedstuff, FR-2 (manufactured by Funabashi Farm Co., Ltd.) was used.) After the tumor had reached a size of 100 to 200 mm^3, the mice were randomized based on tumor diameter, and oral administration of the compound of Example 4 (hereinafter referred to as Compound A) was then initiated. As a solvent for dissolving Compound A, 1% hydroxypropyl methyl cellulose was used. […] Moreover, the tumor was collected (no administration was carried out on the Vehicle group) two hours and six hours after the final administration of Compound A, and the RET phosphorylation of the tyrosine at position 905 used as an indicator of RET kinase activity (pRET(Y905), Nature Medicine, 18, 375-377 (2012)) was then detected by the Western blotting method.

[3] = target: RET phosphorylation of the tyrosine at position 905 (pRET(Y905)) (Homo sapiens (Human), UniProt P07949+Q16204); assay: RET phosphorylation (Y905) in LC-2/ad xenograft tumors, Western blotting; assay type: in vivo, NOG mice; conditions: tumor collected two and six hours after final administration (FIG. 2)
RET phosphorylation of the tyrosine at position 905 (pRET(Y905)), sequence (P07949 other isoform, or with tags, fused parts or gaps): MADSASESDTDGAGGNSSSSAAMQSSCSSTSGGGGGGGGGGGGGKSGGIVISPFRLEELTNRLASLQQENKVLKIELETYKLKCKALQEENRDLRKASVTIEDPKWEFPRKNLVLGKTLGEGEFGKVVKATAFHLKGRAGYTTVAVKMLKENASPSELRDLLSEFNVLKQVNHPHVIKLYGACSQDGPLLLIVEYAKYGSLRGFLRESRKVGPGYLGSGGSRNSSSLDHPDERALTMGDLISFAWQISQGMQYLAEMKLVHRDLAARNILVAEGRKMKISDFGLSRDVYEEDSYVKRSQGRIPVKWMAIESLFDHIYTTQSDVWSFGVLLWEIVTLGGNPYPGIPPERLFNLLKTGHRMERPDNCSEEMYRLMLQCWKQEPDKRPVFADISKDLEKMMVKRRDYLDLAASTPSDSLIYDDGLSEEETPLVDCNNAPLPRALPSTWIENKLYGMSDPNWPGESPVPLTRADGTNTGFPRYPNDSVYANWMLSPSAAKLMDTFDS
Description: as §1

[4] = test system: thyroid gland cancer cell line TT having RET activating mutation (C634W); assay: Cell growth inhibitory activity, thyroid gland cancer cell line TT; assay type: cell-based; conditions: Homo sapiens, 216 h; TT cells, 9 days, CellTiter-Glo
Protocol: The cell growth inhibitory activity of the test compound on the thyroid gland cancer cell line TT having RET activating mutation (C634W) (Biochemical and Biophysical Research Communications. 1995 Feb. 27 (207), 1022-1028) was measured.
TT cells were seeded on a 96-well plate at a cell density of 5,000 cells per well, and were then cultured at 37° C. in the presence of 5% CO2 overnight in an F-12K nutrient mixture medium containing 10% FBS. Thereafter, the compound was diluted, and then added to the 96-well plate. As a negative control, dimethyl sulfoxide (hereinafter referred to as DMSO) was added. The obtained mixture was cultured at 37° C. in the presence of 5% CO2 for 9 days, and thereafter, a cell count measuring reagent CellTiter-Glo® Luminescent Cell Viability Assay was added to the culture, followed by stirring the mixture. Thereafter, using a luminescence measurement device Envision (Perkin Elmer), the luminescence intensity was measured. The measurement value of a well to which only the medium had been added was define as a survival rate of 0%, and the measurement value of a well to which DMSO had been added was defined as a survival rate of 100%. The survival rate of the TT cells in the presence of each concentration of the test compound was calculated.

IC50 [1]: 0.049 µM | IC50 (KDR kinase; KDR, HUVEC cells, VEGF165 50 ng/ml, compound 2 hours, read-out: IC50): 298 nM | IC50 (KDR kinase; cell system, Form: Mesylate, read-out: IC50 (nM) KDR): 287 nM | IC50 [4]: 0.006 µM
Compound: COc1cc2cc(-c3ccc(CC(=O)Nc4cc(C(C)(C)C(F)(F)F)no4)cn3)cnc2cc1OC [Example 4, 2-[6-(6,7-Dimethoxyquinolin-3-yl)pyridin-3-yl]-N-[3-(1,1,1-trifluoro-2-methylpropan-2-yl)-1,2-oxazol-5-yl]acetamide Methanesulfonate]
tumor regression ([2]; 3 mg/kg or 1 mg/kg three times a day for 9 days (FIG. 1)): dose-dependent tumor regression | reduction in body weight ([2]; 3 mg/kg or 1 mg/kg three times a day for 9 days, compared to Vehicle group): no significant reduction in body weight | suppression of the phosphorylation of Y905 (pRET(Y905)) [3]: dose-dependent suppression of the phosphorylation of Y905
